Assay results from US4132723A, “Substituted phenyl- or cyclohex-1-en-1-yl-3,7-demethyl-nona-2,4,6-trienoic acids and derivatives thereof” (Hoffmann-La Roche Inc., priority 1973, dated 1979).

Assays:
[1] = tested on: papillomas; experiment: papilloma test (tumors induced with dimethyl-benzanthracene and croton oil); type: in vivo; conditions: mice, intraperitoneal, 400 mg/kg/week, within 2 weeks
Experimental: The polyene compounds of formula I are useful in the topical and systemic prophylaxis and treatment of benign and malignant neoplasias and premalignant lesions. The tumor-inhibiting activity of the polyene compounds of the invention is significant. […] The diameter of such papillomas in mice decreased by 54% within 2 weeks upon the intraperitoneal administration of 3,7-dimethyl-9-(4-methoxy-2,3,6-trimethyl-phenyl)-nona-2,4,6-trien-1-oic acid at a dosage of 400 mg/kg/week.

[2] = acute toxicity in mice after intraperitoneal administration in rape oil; conditions: mouse, in vivo, ip

COc1cc(C)c(CC/C(C)=C/C=C/C(C)=C/C(=O)O)c(C)c1C [3,7-dimethyl-9-(4-methoxy-2,3,6-trimethyl-phenyl)-nona-2,4,6-trien-1-oic acid]
decrease in diameter of papillomas [1]: 54% | LD50 [2]: 1400 mg/kg | LD50 at 24 h [2]: > 4000 mg/kg | LD50 at 240 h [2]: 1400 mg/kg | LD50 at 480 h [2]: 1400 mg/kg
